For the experiment, the system named is mice. As to the kind of experiment: Neuropharmacological assay (SmartCube), behavioral signature of compound-treated mice. Type of experiment: in vivo. The following applies: i.p. 15 min before behavioral test, most efficacious dose(s) of 3 doses. The procedure, abridged: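 Mice received compound i.p. in NMP/PEG/propylene glycol vehicle at 3 doses, 15 min before testing. Video-captured behavior was algorithmically compared with a reference-drug signature database.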

Structures are written as SMILES.

Consider nine molecules from patent US10336732B2, “1-heterocyclyl isochromanyl compounds and analogs for treating CNS disorders” (Sunovion Pharmaceuticals Inc., priority 2015, dated 2019).

Consider `Cc1ccc2c(c1)[C@@H]([C@@H]1CCCN1)OCC2` [Compound I-26, (S)-2-((S)-7-methylisochroman-1-yl)pyrrolidine], for which the “AD: ADHD (probability that behavioral signature matches class)” value (“AD: ADHD” below) was “+ (LOQ ≤ + <5%)”, the “AG: analgesic (probability that behavioral signature matches class)” value (from here on “AG: analgesic”) was “+ (LOQ ≤ + <5%)”, the “AX: anxiolytic (probability that behavioral signature matches class)” value (“AX: anxiolytic” below) is recorded as “++ (5% ≤ ++ <25%)” and the “CE: cognitive enhancer (probability that behavioral signature matches class)” value (“CE: cognitive enhancer” below) is reported as “+ (LOQ ≤ + <5%)”. In addition, the “DP: anti-depressant (probability that behavioral signature matches class)” value (“DP: anti-depressant” below) was “+ (LOQ ≤ + <5%)”, the “HA: hallucinogen (probability that behavioral signature matches class)” value (“HA: hallucinogen” for short) is listed as “+ (LOQ ≤ + <5%)”, the “MS: mood stabilizer (probability that behavioral signature matches class)” value (shortened to “MS: mood stabilizer”) is recorded as “+ (LOQ ≤ + <5%)” and the “PS: anti-psychotic (probability that behavioral signature matches class)” value (shortened to “PS: anti-psychotic”) is given as “+ (LOQ ≤ + <5%)”. The “SD: sedative hypnotic (probability that behavioral signature matches class)” value (from here on “SD: sedative hypnotic”) is reported as “+ (LOQ ≤ + <5%)”, the “UN: uncharacterized CNS activity (probability that behavioral signature matches class)” value (“UN: uncharacterized CNS activity” below) is given as “+ (LOQ ≤ + <5%)” and the “XG: anxiogenic (probability that behavioral signature matches class)” value (from here on “XG: anxiogenic”) is “+ (LOQ ≤ + <5%)”.
As for `Cc1ccc2c(c1)[C@@H]([C@H]1CCCN1)OCC2` [Compound I-27, (R)-2-((S)-7-methylisochroman-1-yl)pyrrolidine], the “AD: ADHD” value is given as “+ (LOQ ≤ + <5%)”, the “AG: analgesic” value is recorded as “++ (5% ≤ ++ <25%)”, the “AX: anxiolytic” value was “+++ (25% ≤ +++ <50%)” and the “CE: cognitive enhancer” value is on record as “++ (5% ≤ ++ <25%)”. In addition, the “DP: anti-depressant” value is on record as “++ (5% ≤ ++ <25%)”, the “HA: hallucinogen” value was “+ (LOQ ≤ + <5%)”, the “MS: mood stabilizer” value is reported as “++ (5% ≤ ++ <25%)” and the “PS: anti-psychotic” value is recorded as “++ (5% ≤ ++ <25%)”. Moreover, the “SD: sedative hypnotic” value is “+ (LOQ ≤ + <5%)”, the “UN: uncharacterized CNS activity” value is reported as “+ (LOQ ≤ + <5%)” and the “XG: anxiogenic” value is given as “+ (LOQ ≤ + <5%)”.
`Cc1ccc2c(c1)[C@H]([C@H]1CCCN1)OCC2` [Compound I-28, (R)-2-((R)-7-methylisochroman-1-yl)pyrrolidine]: the “AD: ADHD” value is on record as “+ (LOQ ≤ + <5%)”, the “AG: analgesic” value was “++ (5% ≤ ++ <25%)”, the “AX: anxiolytic” value is “+++ (25% ≤ +++ <50%)” and the “CE: cognitive enhancer” value was “+ (LOQ ≤ + <5%)”. In addition, the “DP: anti-depressant” value is given as “++ (5% ≤ ++ <25%)”, the “HA: hallucinogen” value is “+ (LOQ ≤ + <5%)”, the “MS: mood stabilizer” value is “+ (LOQ ≤ + <5%)” and the “PS: anti-psychotic” value was “++ (5% ≤ ++ <25%)”. Also, the “SD: sedative hypnotic” value is “+ (LOQ ≤ + <5%)”, the “UN: uncharacterized CNS activity” value is “++ (5% ≤ ++ <25%)” and the “XG: anxiogenic” value is given as “+ (LOQ ≤ + <5%)”.
On to `Clc1ccc2c(c1)[C@@H]([C@@H]1CCCN1)OCC2` [Compound I-30, (S)-2-((S)-7-chloroisochroman-1-yl)pyrrolidine], for which the “AD: ADHD” value is recorded as “+ (LOQ ≤ + <5%)”, the “AG: analgesic” value is given as “++ (5% ≤ ++ <25%)”, the “AX: anxiolytic” value is “+++ (25% ≤ +++ <50%)” and the “CE: cognitive enhancer” value is “++ (5% ≤ ++ <25%)”. Further, the “DP: anti-depressant” value is given as “++ (5% ≤ ++ <25%)”, the “HA: hallucinogen” value is “+ (LOQ ≤ + <5%)”, the “MS: mood stabilizer” value is “+ (LOQ ≤ + <5%)” and the “PS: anti-psychotic” value is “+++ (25% ≤ +++ <50%)”. Also, the “SD: sedative hypnotic” value is on record as “++ (5% ≤ ++ <25%)”, the “UN: uncharacterized CNS activity” value is reported as “+ (LOQ ≤ + <5%)” and the “XG: anxiogenic” value was “+ (LOQ ≤ + <5%)”.
Take `Clc1ccc2c(c1)[C@H]([C@H]1CCCN1)OCC2` [Compound I-31, (R)-2-((R)-7-chloroisochroman-1-yl)pyrrolidine]: the “AD: ADHD” value was “+ (LOQ ≤ + <5%)”, the “AG: analgesic” value is “++ (5% ≤ ++ <25%)”, the “AX: anxiolytic” value is “+++ (25% ≤ +++ <50%)” and the “CE: cognitive enhancer” value is given as “++ (5% ≤ ++ <25%)”. The “DP: anti-depressant” value is given as “++ (5% ≤ ++ <25%)”, the “HA: hallucinogen” value is “+ (LOQ ≤ + <5%)”, the “MS: mood stabilizer” value is “++ (5% ≤ ++ <25%)” and the “PS: anti-psychotic” value is “+++ (25% ≤ +++ <50%)”. Besides, the “SD: sedative hypnotic” value is listed as “++ (5% ≤ ++ <25%)”, the “UN: uncharacterized CNS activity” value is listed as “+ (LOQ ≤ + <5%)” and the “XG: anxiogenic” value is listed as “+ (LOQ ≤ + <5%)”.
`Clc1ccc2c(c1)[C@@H]([C@H]1CCCN1)OCC2` [Compound I-32, (R)-2-((S)-7-chloroisochroman-1-yl)pyrrolidine]: the “AD: ADHD” value was “+ (LOQ ≤ + <5%)”, the “AG: analgesic” value was “+++ (25% ≤ +++ <50%)”, the “AX: anxiolytic” value is reported as “++ (5% ≤ ++ <25%)” and the “CE: cognitive enhancer” value is given as “++ (5% ≤ ++ <25%)”. Further, the “DP: anti-depressant” value was “++ (5% ≤ ++ <25%)”, the “HA: hallucinogen” value is on record as “+ (LOQ ≤ + <5%)”, the “MS: mood stabilizer” value was “+ (LOQ ≤ + <5%)” and the “PS: anti-psychotic” value is listed as “+++ (25% ≤ +++ <50%)”. For the same molecule, the “SD: sedative hypnotic” value is reported as “++ (5% ≤ ++ <25%)”, the “UN: uncharacterized CNS activity” value is listed as “+ (LOQ ≤ + <5%)” and the “XG: anxiogenic” value was “+ (LOQ ≤ + <5%)”.
Consider `Clc1ccc2c(c1)CCO[C@@H]2[C@@H]1CCCN1` [Compound I-33, (S)-2-((S)-6-chloroisochroman-1-yl)pyrrolidine], for which the “AD: ADHD” value is given as “+ (LOQ ≤ + <5%)”, the “AG: analgesic” value is “+ (LOQ ≤ + <5%)”, the “AX: anxiolytic” value was “++ (5% ≤ ++ <25%)” and the “CE: cognitive enhancer” value is listed as “++ (5% ≤ ++ <25%)”. Moreover, the “DP: anti-depressant” value is reported as “++ (5% ≤ ++ <25%)”, the “HA: hallucinogen” value is “+ (LOQ ≤ + <5%)”, the “MS: mood stabilizer” value is listed as “+ (LOQ ≤ + <5%)” and the “PS: anti-psychotic” value was “+++ (25% ≤ +++ <50%)”. Moreover, the “SD: sedative hypnotic” value is recorded as “++ (5% ≤ ++ <25%)”, the “UN: uncharacterized CNS activity” value is recorded as “+ (LOQ ≤ + <5%)” and the “XG: anxiogenic” value was “+ (LOQ ≤ + <5%)”.
Consider `Clc1ccc2c(c1)CCO[C@H]2[C@@H]1CCCN1` [Compound I-34, (S)-2-((R)-6-chloroisochroman-1-yl)pyrrolidine], for which the “AD: ADHD” value was “+ (LOQ ≤ + <5%)”, the “AG: analgesic” value is listed as “++ (5% ≤ ++ <25%)”, the “AX: anxiolytic” value is recorded as “++ (5% ≤ ++ <25%)” and the “CE: cognitive enhancer” value was “++ (5% ≤ ++ <25%)”. Further, the “DP: anti-depressant” value is “++ (5% ≤ ++ <25%)”, the “HA: hallucinogen” value is “+ (LOQ ≤ + <5%)”, the “MS: mood stabilizer” value is “+ (LOQ ≤ + <5%)” and the “PS: anti-psychotic” value is on record as “++ (5% ≤ ++ <25%)”. Besides, the “SD: sedative hypnotic” value is reported as “++ (5% ≤ ++ <25%)”, the “UN: uncharacterized CNS activity” value was “+++ (25% ≤ +++ <50%)” and the “XG: anxiogenic” value is “+ (LOQ ≤ + <5%)”.
On to `Clc1ccc2c(c1)CCO[C@H]2[C@H]1CCCN1` [Compound I-35, (R)-2-((R)-6-chloroisochroman-1-yl)pyrrolidine], for which the “AD: ADHD” value is “+ (LOQ ≤ + <5%)”, the “AG: analgesic” value is “+ (LOQ ≤ + <5%)”, the “AX: anxiolytic” value is listed as “++ (5% ≤ ++ <25%)” and the “CE: cognitive enhancer” value is “++ (5% ≤ ++ <25%)”. The “DP: anti-depressant” value is “++ (5% ≤ ++ <25%)”, the “HA: hallucinogen” value was “+ (LOQ ≤ + <5%)”, the “MS: mood stabilizer” value is given as “+ (LOQ ≤ + <5%)” and the “PS: anti-psychotic” value is “+++ (25% ≤ +++ <50%)”. Also, the “SD: sedative hypnotic” value is given as “++ (5% ≤ ++ <25%)”, the “UN: uncharacterized CNS activity” value was “++ (5% ≤ ++ <25%)” and the “XG: anxiogenic” value is listed as “+ (LOQ ≤ + <5%)”.
